In ChEMBL document CHEMBL4414666, “Structure-Activity Relationships of Pentacyclic Triterpenoids as Inhibitors of Cyclooxygenase and Lipoxygenase Enzymes” (J Nat Prod, 2019):
pIC50: −log10 of the molar value.

Columns and labels:
[1] = target: T1, Polyunsaturated fatty acid 5-lipoxygenase (Homo sapiens, UniProt P09917); test: Inhibition of human recombinant 5-LOX expressed in insect cells assessed as decrease in production of 5-HPETE and 5-HETE using arachidonic acid as substrate preincubated for 5 mins followed by substrate addition measured after 20 mins in dark by ferric ion oxidation-xylenol orange method; settings: for pIC50: read-out: IC50
T1 sequence (P09917 whole entry): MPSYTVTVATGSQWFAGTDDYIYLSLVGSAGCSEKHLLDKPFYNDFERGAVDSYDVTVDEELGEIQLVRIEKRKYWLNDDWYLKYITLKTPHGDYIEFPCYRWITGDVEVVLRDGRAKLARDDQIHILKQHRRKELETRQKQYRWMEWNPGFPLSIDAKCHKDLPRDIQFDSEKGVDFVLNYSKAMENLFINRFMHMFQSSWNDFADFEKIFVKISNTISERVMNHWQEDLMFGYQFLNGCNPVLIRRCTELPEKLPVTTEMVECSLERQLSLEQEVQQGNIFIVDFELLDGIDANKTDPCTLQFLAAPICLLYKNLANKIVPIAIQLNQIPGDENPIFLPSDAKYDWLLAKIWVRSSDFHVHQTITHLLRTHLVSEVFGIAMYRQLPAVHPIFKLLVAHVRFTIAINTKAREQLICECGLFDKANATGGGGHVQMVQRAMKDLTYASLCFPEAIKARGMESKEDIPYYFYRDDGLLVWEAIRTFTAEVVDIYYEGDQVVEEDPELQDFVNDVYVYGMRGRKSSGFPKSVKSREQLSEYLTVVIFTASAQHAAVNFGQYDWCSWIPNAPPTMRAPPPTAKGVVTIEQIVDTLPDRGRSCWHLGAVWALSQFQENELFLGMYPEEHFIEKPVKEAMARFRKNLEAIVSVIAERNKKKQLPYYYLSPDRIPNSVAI

[2] = target: T2, Polyunsaturated fatty acid 5-lipoxygenase (Homo sapiens) (UniProt P09917); test: Inhibition of human recombinant 5-LOX expressed in insect cells assessed residual activity using arachidonic acid at 42 uM as substrate preincubated for 5 mins followed by substrate addition measured after 20 mins in dark by ferric ion oxidation-xylenol orange method relative to control
T2 sequence (whole entry): T1 sequence (P09917 whole entry)

[3] = target: T3, Polyunsaturated fatty acid lipoxygenase ALOX15B (Homo sapiens, UniProt O15296); test: (§1) Inhibition of human recombinant N-terminal His-tagged 15-LOX2 expressed in Escherichia coli using arachidonic acid as substrate preincubated for 5 mins followed by substrate addition measured after 20 mins in dark by ferric ion oxidation-xylenol orange assay; settings: for pIC50: read-out: IC50
T3 sequence (O15296 whole entry): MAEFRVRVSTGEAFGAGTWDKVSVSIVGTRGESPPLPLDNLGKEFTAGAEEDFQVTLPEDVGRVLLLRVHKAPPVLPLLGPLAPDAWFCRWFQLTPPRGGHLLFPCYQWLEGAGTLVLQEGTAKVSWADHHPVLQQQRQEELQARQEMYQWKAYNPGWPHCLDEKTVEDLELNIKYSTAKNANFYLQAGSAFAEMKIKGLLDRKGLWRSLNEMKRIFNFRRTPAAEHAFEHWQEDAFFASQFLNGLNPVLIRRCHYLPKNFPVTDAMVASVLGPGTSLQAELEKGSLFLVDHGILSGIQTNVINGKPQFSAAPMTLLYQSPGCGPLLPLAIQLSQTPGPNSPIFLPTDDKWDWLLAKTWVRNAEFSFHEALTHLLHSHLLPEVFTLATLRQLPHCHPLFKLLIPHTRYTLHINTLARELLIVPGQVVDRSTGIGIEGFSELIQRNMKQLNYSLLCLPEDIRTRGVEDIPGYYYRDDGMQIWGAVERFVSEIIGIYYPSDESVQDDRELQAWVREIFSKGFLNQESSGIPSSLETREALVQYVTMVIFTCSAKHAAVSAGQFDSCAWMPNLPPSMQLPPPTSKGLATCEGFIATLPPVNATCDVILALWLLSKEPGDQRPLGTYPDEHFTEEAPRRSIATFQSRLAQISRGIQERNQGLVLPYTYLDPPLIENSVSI

[4] = target: T4, Polyunsaturated fatty acid lipoxygenase ALOX15B (Homo sapiens) (UniProt O15296); test: as §1, with “coli assessed as residual activity at 42 uM” for “coli”, “assay relative to control” for “assay”
T4 sequence (whole entry): T3 sequence (O15296 whole entry)

[5] = target: T5, Prostaglandin G/H synthase 1 (Ovis aries, UniProt P05979);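 further: recombinant ovine COX1 enzyme, PGE2 formed from arachidonic acid quantified by LC-MS, 10 min inhibitor preincubation then 45 min reaction, inhibition seen as reduced PGE2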
T5 sequence (P05979 whole entry): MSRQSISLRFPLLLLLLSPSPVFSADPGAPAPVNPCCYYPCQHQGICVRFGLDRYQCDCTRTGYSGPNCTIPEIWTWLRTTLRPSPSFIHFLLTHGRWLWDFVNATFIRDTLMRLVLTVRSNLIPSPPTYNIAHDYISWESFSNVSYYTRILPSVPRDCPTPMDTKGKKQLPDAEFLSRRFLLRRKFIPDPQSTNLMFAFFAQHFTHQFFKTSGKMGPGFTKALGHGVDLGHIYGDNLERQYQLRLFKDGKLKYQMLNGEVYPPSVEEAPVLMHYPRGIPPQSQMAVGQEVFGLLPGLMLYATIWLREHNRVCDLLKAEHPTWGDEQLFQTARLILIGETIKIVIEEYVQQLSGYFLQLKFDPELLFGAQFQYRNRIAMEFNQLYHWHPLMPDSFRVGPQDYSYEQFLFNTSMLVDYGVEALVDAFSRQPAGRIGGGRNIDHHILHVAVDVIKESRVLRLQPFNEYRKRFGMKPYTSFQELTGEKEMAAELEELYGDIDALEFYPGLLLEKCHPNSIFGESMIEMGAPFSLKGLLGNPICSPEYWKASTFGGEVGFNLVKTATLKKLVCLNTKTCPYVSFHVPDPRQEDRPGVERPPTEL
Description: Inhibition of ovine recombinant COX1 assessed as decrease in formation of PGE2 using arachidonic acid as substrate preincubated for 10 mins followed by substrate addition measured after 45 mins by LC-MS analysis

[6] = target: T6, Prostaglandin G/H synthase 2 (Homo sapiens, UniProt P35354); test: biochemical; type: cell-based, Sf21; settings: for IC50: sf21; for pIC50: read-out: IC50;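 on all read-outs here: recombinant enzyme produced in baculovirus-infected Sf21 cells, arachidonic acid substrate, PGE2 output quantified by LC-MS after 45 min, compounds preincubated 10 min beforehand, lower PGE2 means inhibition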
T6 sequence (P35354 whole entry): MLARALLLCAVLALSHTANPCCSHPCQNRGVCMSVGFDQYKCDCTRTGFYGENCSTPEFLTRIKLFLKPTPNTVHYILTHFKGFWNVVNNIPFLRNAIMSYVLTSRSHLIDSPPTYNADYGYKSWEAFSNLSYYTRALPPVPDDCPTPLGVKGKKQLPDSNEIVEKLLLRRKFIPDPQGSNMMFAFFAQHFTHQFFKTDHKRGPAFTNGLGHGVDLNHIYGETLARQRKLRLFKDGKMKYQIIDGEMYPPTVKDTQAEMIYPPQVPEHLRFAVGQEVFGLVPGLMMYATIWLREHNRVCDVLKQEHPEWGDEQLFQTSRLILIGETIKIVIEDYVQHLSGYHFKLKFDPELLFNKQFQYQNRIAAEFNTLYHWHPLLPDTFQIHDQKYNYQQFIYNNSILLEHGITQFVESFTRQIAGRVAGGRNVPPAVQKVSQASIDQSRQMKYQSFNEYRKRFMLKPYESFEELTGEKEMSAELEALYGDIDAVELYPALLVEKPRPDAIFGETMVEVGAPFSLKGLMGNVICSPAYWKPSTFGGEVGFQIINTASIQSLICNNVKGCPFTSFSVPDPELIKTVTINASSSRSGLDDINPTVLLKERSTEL
Description: Inhibition of human recombinant COX2 expressed in baculovirus infected sf21 cells assessed as decrease in PGE2 formation using arachidonic acid as substrate preincubated for 10 mins followed by substrate addition measured after 45 mins by LC-MS analysis

SMILES | pIC50 [1] | Activity [2] [%] | pIC50 [3] | Activity [4] [%] | IC50 [5] | IC50 [6] | IC50 [3] | pIC50 [6] | IC50 [1]
CC1(C)[C@@H](O)CC[C@]2(C)[C@H]3C(=O)C=C4[C@@H]5C[C@@](C)(CO)CC[C@]5(C)CC[C@@]4(C)[C@]3(C)CC[C@@H]12 | 4.59 | 25.2 |  | 100 | Not Active |  | Not Active | < 4.40 | 
CC1(C)CC[C@]2(C(=O)O)CC[C@]3(C)C(=CC[C@@H]4[C@@]5(C)C[C@H](O)[C@H](O)[C@@](C)(CO)[C@@H]5CC[C@]43C)[C@@H]2C1 | < 4.40 | 71.9 |  | 100 | Not Active |  | Not Active | < 4.40 | 
CC1(C)[C@@H](O)CC[C@]2(C)[C@H]3CC=C4[C@@H]5C[C@@](C)(CO)CC[C@]5(C)CC[C@@]4(C)[C@]3(C)CC[C@@H]12 | 4.50 | 34.8 |  | 100 | Not Active |  | Not Active | < 4.40 | 
CC1(C)[C@@H](O)CC[C@]2(C)[C@H]3C(=O)C=C4[C@@H]5C[C@@](C)(C(=O)O)CC[C@]5(C)CC[C@@]4(C)[C@]3(C)CC[C@@H]12 [ENOXOLONE] | 4.61 | 28.3 | < 4.40 | 98.6 | Not Active |  |  | < 4.40 | 
C[C@H]1[C@H](C)CC[C@]2(C)CC[C@]3(C)C(=CC[C@@H]4[C@@]5(C)CCC(=O)C(C)(C)[C@@H]5CC[C@]43C)[C@H]12 |  | 100 |  | 100 | Not Active |  | Not Active | < 4.40 | Not Active
CC1(C)CC[C@]2(C(=O)O)CC[C@]3(C)C(=CC[C@@H]4[C@@]5(C)C[C@H](O)[C@H](O)[C@@](C)(C(=O)O)[C@@H]5CC[C@]43C)[C@@H]2C1 | 4.52 | 40.7 |  | 100 | Not Active |  | Not Active | < 4.40 | 

The next lines start with the values.

pIC50 [1] | Activity [2] [%] | pIC50 [3] | Activity [4] [%] | IC50 [5] | IC50 [6] | IC50 [3] | pIC50 [6] | IC50 [1] | SMILES
< 4.40 | 59.8 | < 4.40 | 64.7 | Not Active | Not Active |  |  |  | CC1(C)CC[C@]2(C(=O)O)CC[C@]3(C)C(=CC[C@@H]4[C@@]5(C)CC[C@H](O)[C@@](C)(CO)[C@@H]5CC[C@]43C)[C@@H]2C1 [HEDERAGENIN]
< 4.40 | 73.3 | < 4.40 | 97.2 | Not Active | Not Active |  |  |  | CC1(C)CC[C@]2(C)CC[C@]3(C)C(=CC[C@@H]4[C@@]5(C)CC[C@H](O)C(C)(C)[C@@H]5CC[C@]43C)[C@@H]2C1 [beta-AMYRIN]
< 4.40 | 60.7 |  | 100 | Not Active | Not Active | Not Active |  |  | CC1(C)CC[C@]2(CO)CC[C@]3(C)C(=CC[C@@H]4[C@@]5(C)CC[C@H](O)C(C)(C)[C@@H]5CC[C@]43C)[C@@H]2C1 [ERYTHRODIOL]
< 4.40 | 86 |  | 100 | Not Active | Not Active | Not Active |  |  | CC1(C)CC[C@]2(C(=O)O)CC[C@]3(C)C(=CC[C@@H]4[C@@]5(C)CC[C@H](O)[C@@](C)(C(=O)O)[C@@H]5CC[C@]43C)[C@@H]2C1
< 4.40 | 70.4 |  | 100 | Not Active |  | Not Active | < 4.40 |  | CC1(C)CC[C@]2(C)CC[C@]3(C)C(=CC(=O)[C@@H]4[C@@]5(C)CC[C@H](O)C(C)(C)[C@@H]5CC[C@]43C)[C@@H]2C1
 | 100 |  | 100 | Not Active | Not Active | Not Active |  | Not Active | CC1(C)CC[C@]2(C(=O)O)CC[C@]3(C)C(=CC[C@@H]4[C@@]5(C)CC[C@H](O)[C@@](C)(C=O)[C@@H]5CC[C@]43C)[C@@H]2C1
